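Exposure lasted 48 hours, with cells grown in 96-well plates and compounds tested at five concentrations. The concentration for 50% growth inhibition is given as GI50. TGI: concentration producing complete growth inhibition.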
Assays:
Experiment in all cases: NCI tumour cell line growth inhibition, 48 h
[1] = system: ACHN renal
[2] = system: MDA-MB-231 breast
[3] = system: U251 CNS
[4] = system: DU-145 prostate
[5] = system: M14 melanoma
[6] = system: RPMI-8226 leukemia
[7] = system: SF-268 CNS
[8] = system: OVCAR-4 ovarian
[9] = system: OVCAR-5 ovarian
[10] = system: T-47D breast
[11] = system: SNB-19 CNS
[12] = system: 786-0 renal
[13] = system: COLO 205 colon
[14] = system: NCI-H522 lung
[15] = system: UACC-257 melanoma
[16] = system: HCT-116 colon
[17] = system: NCI-H226 lung
[18] = system: CAKI-1 renal
[19] = system: SF-295 CNS
[20] = system: HCT-15 colon
[21] = system: RXF 393 renal
[22] = system: HT29 colon
[23] = system: SW-620 colon
[24] = system: KM12 colon
[25] = system: OVCAR-3 ovarian
[26] = system: MCF7 breast
[27] = system: HS 578T breast
[28] = system: A498 renal
[29] = system: NCI/ADR-RES ovarian
[30] = system: CCRF-CEM leukemia
[31] = system: PC-3 prostate
[32] = system: LOX IMVI melanoma
[33] = system: A549 NSCLC
[34] = system: MOLT-4 leukemia
[35] = system: HOP-62 NSCLC
[36] = system: SR leukemia
[37] = system: HOP-92 NSCLC
[38] = system: OVCAR-8 ovarian
[39] = system: EKVX NSCLC
[40] = system: UACC-62 melanoma
[41] = system: SK-MEL-28 melanoma
[42] = system: UO-31 renal
[43] = system: SF-539 CNS
[44] = system: HCC-2998 colon
[45] = system: K-562 leukemia
[46] = system: SNB-75 CNS
[47] = system: MDA-MB-435
[48] = system: TK-10 renal
[49] = system: IGROV1 ovarian
[50] = system: NCI-H460 lung
[51] = system: SK-MEL-2 melanoma
[52] = system: SK-MEL-5 melanoma
[53] = system: HL-60(TB) leukemia
[54] = system: SK-OV-3 ovarian
[55] = system: MALME-3M melanoma
[56] = system: SN12C renal
[57] = system: BT-549 breast

## CN(C)CCCNc1c2ccccc2nc2c1oc1ccc(Cl)cc12
[1]
  GI50: 1.76 µM
  TGI: 15.6 µM
[2]
  GI50: 2 µM
  TGI: 5.69 µM
[3]
  GI50: 3.69 µM
  TGI: 16.4 µM
[4]
  GI50: 4.1 µM
  TGI: 16.6 µM
[5]
  GI50: 1.75 µM
  TGI: 4.2 µM
[6]
  GI50: 2.66 µM
[7]
  GI50: 3.06 µM
  TGI: 16.5 µM
[8]
  GI50: 2.83 µM
  TGI: 14 µM
[9]
  GI50: 5.24 µM
  TGI: 18.8 µM
[10]
  GI50: 6.18 µM
  TGI: 19.9 µM
[11]
  GI50: 4.95 µM
  TGI: 18.4 µM
[12]
  GI50: 3.22 µM
  TGI: 14.4 µM
[13]
  GI50: 1.94 µM
  TGI: 9.57 µM
[14]
  GI50: 3.73 µM
  TGI: 16.6 µM
[15]
  GI50: 4.65 µM
  TGI: 17.2 µM
[16]
  GI50: 0.949 µM
  TGI: 2.32 µM
[17]
  GI50: 4.18 µM
  TGI: 18.2 µM
[18]
  GI50: 2.32 µM
  TGI: 13.3 µM
[19]
  GI50: 4.6 µM
  TGI: 17.3 µM
[20]
  GI50: 1.45 µM
  TGI: 6.5 µM
[21]
  GI50: 1.95 µM
  TGI: 6.74 µM
[22]
  GI50: 1.03 µM
  TGI: 2.94 µM
[23]
  GI50: 0.777 µM
  TGI: 8.63 µM
[24]
  GI50: 2.75 µM
  TGI: 14.9 µM
[25]
  GI50: 6.44 µM
  TGI: 20.2 µM
[26]
  GI50: 1.23 µM
  TGI: 4.59 µM
[27]
  GI50: 4.65 µM
  TGI: 21.3 µM
[28]
  GI50: 9.15 µM
  TGI: 22.9 µM
[29]
  GI50: 1.52 µM
  TGI: 10.8 µM
[30]
  GI50: 2.21 µM
  TGI: 12.6 µM
[31]
  GI50: 3.92 µM
  TGI: 15.8 µM
[32]
  GI50: 1.64 µM
  TGI: 3.33 µM
[33]
  GI50: 3.43 µM
  TGI: 15.3 µM
[34]
  GI50: 0.521 µM
  TGI: 18.9 µM
[35]
  GI50: 4.08 µM
  TGI: 17 µM
[36]
  GI50: 2.19 µM
  TGI: 10.1 µM
[37]
  GI50: 1.37 µM
  TGI: 6.59 µM
[38]
  GI50: 3.75 µM
  TGI: 20.2 µM
[39]
  GI50: 5.22 µM
  TGI: 18.6 µM
[40]
  GI50: 10.9 µM
  TGI: 24.5 µM
[41]
  GI50: 4.48 µM
  TGI: 16.2 µM
[42]
  GI50: 3.15 µM
  TGI: 15.1 µM
[43]
  GI50: 3.31 µM
  TGI: 12.7 µM
[44]
  GI50: 1.43 µM
  TGI: 3.73 µM
[45]
  GI50: 1.25 µM
  TGI: 11.3 µM
[46]
  GI50: 3.67 µM
  TGI: 17.4 µM
[47]
  GI50: 3.91 µM
  TGI: 16.1 µM
[48]
  GI50: 7.35 µM
  TGI: 20.1 µM
[49]
  GI50: 3.68 µM
  TGI: 16.2 µM
[50]
  GI50: 1.05 µM
  TGI: 4.79 µM
[51]
  GI50: 4.2 µM
  TGI: 16.4 µM
[52]
  GI50: 12.5 µM
  TGI: 25 µM
[53]
  GI50: 2.71 µM
  TGI: 10.1 µM
[54]
  GI50: 4.53 µM
  TGI: 17.3 µM
[55]
  GI50: 4.5 µM
  TGI: 17.1 µM
[56]
  GI50: 2.58 µM
  TGI: 13.1 µM
[57]
  GI50: 3.76 µM
  TGI: 14.3 µM
